Assay results taken from patent publication US20250144094A1 (Erasca, Inc., priority 2021, published 2025).
pIC50: −log10 of the molar value.

Molecular target: Recombinant human ULK1 (1-649) (Homo sapiens (Human), UniProt O75385)
Assay: ULK1 ADP Glo kinase activity assay, new method (ULKtide peptide substrate)
Conditions: 25° C., 40 minutes, read-out: ULK1 biochemical IC50
Method in brief: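 GST-tagged human ULK1 (1-649) from Sf9 cells was reacted with ULKtide peptide and ATP for 40 min at 25 °C across 12-point compound dilutions from 10 μM. ADP formed was quantified by ADP-Glo luminescence; IC50 came from four-parameter fits relative to DMSO controls.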

Chain of Recombinant human ULK1 (1-649) (O75385 1-649): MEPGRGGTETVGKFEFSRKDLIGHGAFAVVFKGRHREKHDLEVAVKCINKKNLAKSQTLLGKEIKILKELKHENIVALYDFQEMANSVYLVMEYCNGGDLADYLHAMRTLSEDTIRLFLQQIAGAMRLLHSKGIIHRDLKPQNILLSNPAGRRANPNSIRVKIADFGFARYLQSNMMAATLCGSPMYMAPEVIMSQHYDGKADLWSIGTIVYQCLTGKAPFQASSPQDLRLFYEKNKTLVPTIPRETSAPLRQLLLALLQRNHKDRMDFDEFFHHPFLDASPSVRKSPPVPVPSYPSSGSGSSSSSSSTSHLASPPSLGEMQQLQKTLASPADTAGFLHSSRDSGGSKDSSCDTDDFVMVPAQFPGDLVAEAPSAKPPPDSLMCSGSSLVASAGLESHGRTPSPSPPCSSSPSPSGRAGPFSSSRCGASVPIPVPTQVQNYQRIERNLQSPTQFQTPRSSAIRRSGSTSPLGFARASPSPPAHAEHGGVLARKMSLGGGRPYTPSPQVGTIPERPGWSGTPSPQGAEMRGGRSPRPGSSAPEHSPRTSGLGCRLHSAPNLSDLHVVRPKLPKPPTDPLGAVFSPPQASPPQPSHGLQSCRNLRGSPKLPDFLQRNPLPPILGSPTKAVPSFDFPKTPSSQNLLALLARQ

Row | SMILES | pIC50
1 | CN1CCc2cc(Nc3ncc(C(F)(F)F)c(-c4cc5c(s4)C(=O)N(CC(F)(F)F)CCS5(=O)=O)n3)c(Cl)cc2C1 [Example 144, 7-(2-((7-chloro-2-methyl-1,2,3,4-tetrahydroisoquinolin-6-yl)amino)-5-(trifluoromethyl)pyrimidin-4-yl)-4-(2,2,2-trifluoroethyl)-3,4-dihydrothieno[2,3-f][1,4]thiazepin-5(2H)-one 1,1-dioxide] | ≥ 8.30
2 | O=C1c2sc(-c3nc(Nc4cc5c(cc4C4CC4)CN(C4COC4)CC5)ncc3C(F)(F)F)cc2S(=O)(=O)CCN1C1COC1 [Example 292, 7-(2-((7-cyclopropyl-2-(oxetan-3-yl)-1,2,3,4-tetrahydroisoquinolin-6-yl)amino)-5-(trifluoromethyl)pyrimidin-4-yl)-4-(oxetan-3-yl)-3,4-dihydrothieno[2,3-f][1,4]thiazepin-5(2H)-one 1,1-dioxide] | ≥ 8.30
3 | CCc1cc2c(cc1Nc1ncc(C(F)(F)F)c(-c3cc4c(s3)C(=O)N(C)CCS4(=O)=O)n1)CNC2 [Example 160, 7-(2-((6-ethylisoindolin-5-yl)amino)-5-(trifluoromethyl)pyrimidin-4-yl)-4-methyl-3,4-dihydrothieno[2,3-f][1,4]thiazepin-5(2H)-one 1,1-dioxide] | ≥ 8.30
4 | Cc1c(Nc2ncc(C(F)(F)F)c(-c3cc4c(s3)C(=O)NCCS4(=O)=O)n2)cnn1C1CCNCC1 [Example 178, 7-(2-((5-methyl-1-(piperidin-4-yl)-1H-pyrazol-4-yl)amino)-5-(trifluoromethyl)pyrimidin-4-yl)-3,4-dihydrothieno[2,3-f][1,4]thiazepin-5(2H)-one 1,1-dioxide] | < 7.00
5 | O=S1(=O)CCNS(=O)(=O)c2sc(-c3nc(Nc4cc5c(cc4Cl)CNCC5)ncc3C(F)(F)F)cc21 [Example 295, 7-(2-((7-chloro-1,2,3,4-tetrahydroisoquinolin-6-yl)amino)-5-(trifluoromethyl)pyrimidin-4-yl)-3,4-dihydro-2H-thieno[3,2-f][1,5,2]dithiazepine 1,1,5,5-tetraoxide] | ≥ 8.30
6 | CN1CCS(=O)(=O)c2cc(-c3nc(Nc4ccc(N5CCNCC5)cc4Cl)ncc3C(F)(F)F)sc2C1=O [Example 193, 7-(2-((2-chloro-4-(piperazin-1-yl)phenyl)amino)-5-(trifluoromethyl)pyrimidin-4-yl)-4-methyl-3,4-dihydrothieno[2,3-f][1,4]thiazepin-5(2H)-one 1,1-dioxide] | ≥ 8.30
7 | CCN1CCS(=O)(=O)c2cc(-c3nc(Nc4cc5c(cc4Cl)CN(C)CC5)ncc3C(F)(F)F)sc2C1=O [Example 142, 7-(2-((7-chloro-2-methyl-1,2,3,4-tetrahydroisoquinolin-6-yl)amino)-5-(trifluoromethyl)pyrimidin-4-yl)-4-ethyl-3,4-dihydrothieno[2,3-f][1,4]thiazepin-5(2H)-one 1,1-dioxide] | ≥ 8.30
8 | CCc1cc(N2C[C@H]3CC[C@@H](C2)N3C)ccc1Nc1ncc(C(F)(F)F)c(-c2cc3c(s2)C(=O)N(C2CC2)CCS3(=O)=O)n1 [Example 325, 4-cyclopropyl-7-(2-((2-ethyl-4-((1R,5S)-8-methyl-3,8-diazabicyclo[3.2.1]octan-3-yl)phenyl)amino)-5-(trifluoromethyl)pyrimidin-4-yl)-3,4-dihydrothieno[2,3-f][1,4]thiazepin-5(2H)-one 1,1-dioxide] | ≥ 8.30
9 | O=C1c2sc(-c3nc(Nc4ccc(N5CC6CC(C5)N6)cc4C4CC4)ncc3C(F)(F)F)cc2S(=O)(=O)CCN1C1COC1 [Example 340, 7-(2-((4-(3,6-diazabicyclo[3.1.1]heptan-3-yl)-2-cyclopropylphenyl)amino)-5-(trifluoromethyl)pyrimidin-4-yl)-4-(oxetan-3-yl)-3,4-dihydrothieno[2,3-f][1,4]thiazepin-5(2H)-one 1,1-dioxide] | ≥ 8.30

Second part, the compound after the results:

Row | pIC50 | SMILES
10 | ≥ 8.30 | CCN1CCC(c2ccc(Nc3ncc(C(F)(F)F)c(-c4cc5c(s4)C(=O)N(C4CC4)CCS5(=O)=O)n3)c(C3CC3)c2)CC1 [Example 253, 4-cyclopropyl-7-(2-((2-cyclopropyl-4-(1-ethylpiperidin-4-yl)phenyl)amino)-5-(trifluoromethyl)pyrimidin-4-yl)-3,4-dihydrothieno[2,3-f][1,4]thiazepin-5(2H)-one 1,1-dioxide]
11 | ≥ 8.30 | O=C1c2sc(-c3nc(Nc4cc5c(cc4C4CC4)CNCC5)ncc3C(F)(F)F)cc2S(=O)(=O)CCN1C1CC1 [Example 209, 4-cyclopropyl-7-(2-((7-cyclopropyl-1,2,3,4-tetrahydroisoquinolin-6-yl)amino)-5-(trifluoromethyl)pyrimidin-4-yl)-3,4-dihydrothieno[2,3-f][1,4]thiazepin-5(2H)-one 1,1-dioxide]
12 | ≥ 8.30 | CCc1cc(N2CCN(C3CC3)CC2)ccc1Nc1ncc(C(F)(F)F)c(-c2cc3c(s2)C(=O)N(C2CC2)CCS3(=O)=O)n1 [Example 294, 4-Cyclopropyl-7-(2-((4-(4-cyclopropylpiperazin-1-yl)-2-ethylphenyl)amino)-5-(trifluoromethyl)pyrimidin-4-yl)-3,4-dihydrothieno[2,3-f][1,4]thiazepin-5(2H)-one 1,1-dioxide]
13 | ≥ 8.30 | O=C1c2sc(-c3nc(Nc4ccc(N5C[C@@H]6C[C@H]5CN6)cc4C4CC4)ncc3C(F)(F)F)cc2S(=O)(=O)CCN1C1CC1 [Example 305, 7-(2-((4-((1S,4S)-2,5-diazabicyclo[2.2.1]heptan-2-yl)-2-cyclopropylphenyl)amino)-5-(trifluoromethyl)pyrimidin-4-yl)-4-cyclopropyl-3,4-dihydrothieno[2,3-f][1,4]thiazepin-5(2H)-one 1,1-dioxide]
14 | ≥ 8.30 | CCc1cc(N2CCN[C@@H](CO)C2)ccc1Nc1ncc(C(F)(F)F)c(-c2cc3c(s2)C(=O)N(C2CC2)CCS3(=O)=O)n1 [Example 407, (R)-4-cyclopropyl-7-(2-((2-ethyl-4-(3-(hydroxymethyl)piperazin-1-yl)phenyl)amino)-5-(trifluoromethyl)pyrimidin-4-yl)-3,4-dihydrothieno[2,3-f][1,4]thiazepin-5(2H)-one 1,1-dioxide]
15 | ≥ 8.30 | O=C1c2sc(-c3nc(Nc4cc5c(cc4C4CC4)CNCC5)ncc3C(F)(F)F)cc2S(=O)(=O)CCN1C1CCC1 [Example 218, 4-cyclobutyl-7-(2-((7-cyclopropyl-1,2,3,4-tetrahydroisoquinolin-6-yl)amino)-5-(trifluoromethyl)pyrimidin-4-yl)-3,4-dihydrothieno[2,3-f][1,4]thiazepin-5(2H)-one 1,1-dioxide]
16 | ≥ 8.30 | CCc1cc(N2CCN(CC)CC2)ccc1Nc1ncc(C(F)(F)F)c(-c2cc3c(s2)C(=O)N(C)CCS3(=O)=O)n1 [Example 197, 7-(2-((2-ethyl-4-(4-ethylpiperazin-1-yl)phenyl)amino)-5-(trifluoromethyl)pyrimidin-4-yl)-4-methyl-3,4-dihydrothieno[2,3-f][1,4]thiazepin-5(2H)-one 1,1-dioxide]
17 | ≥ 8.30 | CCc1cc2c(cc1Nc1ncc(C(F)(F)F)c(-c3cc4c(s3)C(=O)N(C3CC3)CCS4(=O)=O)n1)CCN(CC1COC1)C2 [Example 277, 4-cyclopropyl-7-(2-((7-ethyl-2-(oxetan-3-ylmethyl)-1,2,3,4-tetrahydroisoquinolin-6-yl)amino)-5-(trifluoromethyl)pyrimidin-4-yl)-3,4-dihydrothieno[2,3-f][1,4]thiazepin-5(2H)-one 1,1-dioxide]
